Laboratory results as given in patent US11633355B2, “Multi-functional particles and methods of using the same” (Clemson University Research Foundation, priority 2014, dated 2023).

Assays:
[1] = system: rat primary cerebellar neurons (CBN); test: Neurite length of cerebellar neurons in in vitro hypoxia condition; format: cell-based; details: hypoxia 24 hours, then treatment for additional 24 hrs
Experimental: To generate hypoxia condition as a SCI model in vitro, rat primary cerebellar neurons (CBN) were isolated from P3 pubs and plated on the PLL/Laminin coated well plate. After 3 days culture, the cells were incubated in hypoxia gas chamber (95% N2 and 5% 02) for 24 hours and then the cells were treated with Rm-PgP and PgP without rolipram. Cells treated with free rolipram dissolved in DMSO were used as a positive control and cells maintained under normal atmospheric conditions were used as a negative control. The cells were incubated an additional 24 hrs in hypoxia condition and then fixed for neurite length evaluation. The neurite lengths were measured using ImageJ software program after β-3 tubulin staining.

[2] = Sirolimus and heparin loading in PgP micelles; format: physicochemical; details: 0.45 μm filter
Experimental: 50 μl Hep-F (20 mg/ml) was added into PgP solution, followed by two more hours stirring. Methanol was allowed to evaporate overnight, and the solution was centrifuged at 15,000×RCF for 15 minutes. Supernatant containing unbound Hep-F was removed and the precipitated nanoparticle was collected, resuspended and then filtered using 0.45 μm sterile syringe filter to remove unloaded SR. The amount of Hep-F binding to PgP was measured using Hep-F standard curve. Fluorescence was measured using a microplate reader (Excitation: 494 nm Emission: 521 nm, Biotek, VT, USA). Loading efficiency for Hep was calculated as % loading efficiency=(amount of Hep bound to PgP/amount of Hep added to PgP)×100.
Sr-PgP-Hep was prepared sequential loading of SR and Hep in PgP. Briefly, SR solution (LC labs, USA) was loaded in the PgP using solvent evaporation method and Hep was added into SR-PgP solution. […] The amount of SR loaded in PgP micelles solution was measured by High Pressure Liquid Chromatography (HPLC) (Waters Corporation, USA) using SR standard curve prepared in acetonitrile (ACN). […] The loading efficiency was calculated as: % loading efficiency=amount of SR loaded/amount of SR added ×100. The amount of Hep bound to PgP was determined based on Hep-F loading as described above.

Row | SR added in water without PgP, detection by HPLC after filtration [2] | SMILES | neurite length compared with normoxia [1]
1 | – | COc1ccc(C2CNC(=O)C2)cc1OC1CCCC1 (centres unmarked) [free Rm, rolipram] | not significantly different
2 | not detected | CO[C@H]1C[C@@H]2CC[C@@H](C)[C@@](O)(O2)C(=O)C(=O)N2CCCC[C@H]2C(=O)O[C@H]([C@H](C)C[C@@H]2CC[C@@H](O)[C@H](OC)C2)CC(=O)[C@H](C)/C=C(\C)[C@@H](O)[C@@H](OC)C(=O)[C@H](C)C[C@H](C)/C=C/C=C/C=C/1C [sirolimus] | –
